# Measured values published in patent US20080280911A1, “Cinnoline Compounds as Inhibitors of Phosphodiesterase Type IV (Pde4)” (Glaxo Group Limited, priority 2005, published 2008).
# Biological target: T1, PDE4B (human recombinant) enzyme (Homo sapiens, UniProt Q07343)
# T1 construct: made in house; host or cells: Saccharomyces cerevisiae strain GL62 (PDE-deficient yeast), as described in WO 94/20079
# Assay: Inhibition of PDE4B catalytic activity, IMAP fluorescence polarisation (FP) assay
# Type: biochemical
# Details: inhibition of catalytic activity at PDE4B (human recombinant); FP assay described above or similar
# Excerpt: Human recombinant PDE4B, in particular the 2B splice variant thereof (HSPDE4B2B), is disclosed in WO 94/20079 and also in M. M. McLaughlin et al., “A low Km, rolipram-sensitive, cAMP-specific phosphodiesterase from human brain: cloning and expression of cDNA, biochemical characterisation of recombinant protein, and tissue distribution of mRNA”, J. Biol. Chem., 1993, 268, 6470-6476. For example, in Example 1 of WO 94/20079, human recombinant PDE4B is described as being expressed in the PDE-deficient yeast Saccharomyces cerevisiae strain GL62, e.g. after induction by addition of 150 uM CuSO4, and 100,000×g supernatant fractions of yeast cell lysates are described for use in the harvesting of PDE4B enzyme.
# The ability of compounds to inhibit PDE catalytic activity was determined by IMAP Fluorescence Polarisation (FP) assay (Molecular Devices Ltd code: R8062) in 384-well format. […]
# For the PDE3, PDE4B and PDE4D assays Fluorescein adenosine 3′,5′-cyclic phosphate (Molecular Devices Ltd code: R7091) was added to give ˜40 nM final concentration. […] The FP ratio of parallel to perpendicular light was measured using an Analyst™ plate reader (from Molecular Devices Ltd). […] Curves were analysed using ActivityBase and XLfit (ID Business Solutions Limited). Results were expressed as pIC50 values.
# T1 sequence (Q07343 1-564 isoform Q07343-2): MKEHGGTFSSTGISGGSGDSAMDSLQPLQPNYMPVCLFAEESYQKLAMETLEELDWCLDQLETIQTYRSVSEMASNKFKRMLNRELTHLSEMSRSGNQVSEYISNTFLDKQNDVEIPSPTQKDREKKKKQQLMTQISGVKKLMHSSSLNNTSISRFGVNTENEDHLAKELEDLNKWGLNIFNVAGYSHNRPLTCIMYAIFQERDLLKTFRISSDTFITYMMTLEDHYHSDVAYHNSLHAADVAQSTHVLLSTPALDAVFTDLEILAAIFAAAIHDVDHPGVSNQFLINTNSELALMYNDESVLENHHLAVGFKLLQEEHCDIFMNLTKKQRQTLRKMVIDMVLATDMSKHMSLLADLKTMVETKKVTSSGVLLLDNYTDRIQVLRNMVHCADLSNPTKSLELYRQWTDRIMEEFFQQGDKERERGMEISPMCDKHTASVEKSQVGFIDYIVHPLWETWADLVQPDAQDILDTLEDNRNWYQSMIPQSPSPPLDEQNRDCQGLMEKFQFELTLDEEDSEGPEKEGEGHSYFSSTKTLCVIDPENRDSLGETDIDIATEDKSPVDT
smiles,measurement,value
"Cc1cc(S(C)(=O)=O)cc2c(Nc3cccc(C#N)c3)c(C(N)=O)nnc12 [Example 1, 4-[(3-Cyanophenyl)amino]-8-methyl-6-(methylsulfonyl)-3-cinnolinecarboxamide]",IC50,~0.1 nM
